In assay [1] the test system is cpA neuron. Briefly: Single-sensillum recording: activation of cpA neuron by odorants. The conditions noted are these: A. aegypti cpA, 0.5-s pulses, odorants 10^−2 in paraffin oil or water, solvent response subtracted. It is filed as cell-based, Aedes aegypti. The protocol: FIG. 3b depicts representative traces and mean responses of the A. aegypti cpA neuron to 0.5-s pulses of 138 predicted compounds screened using single-sensillum recordings, in which odorants were diluted to 10^−2 in paraffin oil or water, and responses to solvent have been subtracted, n=2-6, and error bars are s.d.
FIG. 5f is a bar graph illustrating the mean responses of the A. aegypti cpA neuron to 0.5-s pulses of 22 newly predicted compounds screened as in FIG. 3b, where salmon bars correspond to odorants found in human odor, odorants were diluted to 10^−2 in paraffin oil or water, and responses to solvent have been subtracted, and n=2-5.
Adult female A. aegypti (Linnaeus 1762) (Rockefeller strain) A. gambiae sensu stricto Giles 1902 (G3 strain), or C. quinquefasciatus Say 1823 were tested 3-12 days post-emergence with single-sensillum extracellular recordings. Chemicals were obtained from Sigma-Aldrich at the highest purity (typically >99%) and were dissolved in paraffin oil or water. […] Response to clean beads was subtracted from the results reported. Only sensilla with cpA activity of <20 spikes s^−1 to negative control were considered for analysis.
(§1) CpA-off and sham treated mosquitoes were pre-treated for 3 min in an upended 1 L glass dish in which 100 μl of fresh butyryl chloride (1%) or paraffin oil was allowed to vaporize for 10-20 min. The odor delivery system for different screens is shown in FIG. 7b; solvent responses during the same recording session were subtracted. Inhibition screen was tested. For the ultra-prolonged activator the 3-s stimulus was delivered from a 10 ml disposable pipette using a CS-55 stimulus controller (Syntech), CO2 was delivered, and responses to subsequent odor stimuli were calculated by subtracting baseline activity 1 s prior to each stimulus. When responses to repeated pulses of cyclopentanone and CO2 were compared, baseline activity between seconds 5 and 6 following each stimulus was subtracted. Spike counting was done manually or with Igor Pro6.2 (Wavemetrics) with the Neuromatic v2.00 macro (by Jason Rothman), and peak-to-peak spike amplitudes for FIG. 8 were analysed in Clampfit 10.3 (Molecular Devices).
From the large list of cpA receptor ligands predicted from Example 3 above, 138 compounds were selected based on desirable criteria for application such as smell, presence in natural sources, human safety profile, and cost to procure. These compounds were tested individually using single-sensillum electrophysiology on the cp sensillum of female A. aegypti, according to the procedure described in Example 1 above.

In assay [2] the test system is cpA neuron. Briefly: Inhibition screen: odorant overlaid on 0.15% CO2 stimulus, cpA response. It is filed as cell-based, Aedes aegypti. The conditions noted are these: for % Inhibition: 1-s odorant stimulus (10^−2) in the middle of a 3-s 0.15% CO2 stimulus, vs solvent overlay. The protocol: Percent inhibition was calculated by comparing mean odorant overlay responses to mean solvent overlay responses, and error bars are s.d.
as §1

A further assay concerns C. quinquefasciatus. Description: Semi-field two-choice greenhouse trapping. It is filed as in vivo, Culex quinquefasciatus. The conditions noted are these: 10% lactic acid bait. From the text: FIG. 4g is a schematic of two-choice greenhouse experiments with two counterflow geometry traps, in which mosquitoes were trapped overnight in odorant-baited and solvent (water)-baited traps.
Semi-field trapping: Two modified greenhouses at the Agricultural Experiment Station at the University of California, Riverside, were used as described previously^2, with modifications. Fifty laboratory-reared, mated, non-blood fed female C. quinquefasciatus aged 8-14 days and starved for 24 hrs were released each evening around 5 pm and traps collected at ˜7 am. Counter flow geometry traps baited with CO2 (250 ml min^−1, ˜670 mmol/hr) odorant were used as described^2, with modifications. Odorant solutions in water were dispensed from 20 cm long gauze wicks protruding from uncapped 50 ml tubes beneath the trap outflow. For each trial, one baited trap and one control trap (water-filled) were placed in each of two greenhouses (FIG. 4g). For two-choice CO2 trials, water was placed under both traps. For two-choice ethyl pyruvate trials, both traps expelled CO2, and one trap also released ethyl pyruvate from an open 2.8×7 cm glass vial. Since ethyl pyruvate has very low volatility pure compound was used to generate ˜1.7 mmol/hr. An empty vial was placed under control traps. Treatment position and trap were alternated across trials. Volume of solution lost from tubes containing 5%, 10%, or 20% cyclopentanone were measured after each trial and the average loss of molecules calculated respectively for 3 concentrations as (±s.d.) of 0.7 (±0.1), 1.7 (±0.4), and 3.8 (±0.3) mmol/hr, respectively. Preference index=(# mosquitoes in odor-baited trap−# mosquitoes in control trap)/(total # mosquitoes caught in both traps).
The efficacy of cyclopentanone as a lure was tested using traps in controlled semi-field experiments with C. quinquefasciatus, a mosquito present in Southern California, where the experiments took place. 50 female mosquitoes were released overnight in a modified greenhouse that contained two counter-flow geometry mosquito traps (FIG. 4g). One trap was baited with an evaporative lure of cyclopentanone diluted in water, and the second trap was baited with water alone.

In assay [3] the test system is cpA neuron. Briefly: Ultra-prolonged activation: cpA firing after 3-s odorant exposure. It is filed as cell-based, Aedes aegypti.
From the text: FIG. 3d depicts representative traces from the A. aegypti cp sensillum to 1-s pulses of 0.15% CO2 prior to and following a 3-s exposure to either solvent (paraffin oil) or (E)-2-methylbut-2-enal (10^−1).
FIG. 3e is a graph illustrating the cpA baseline activity in the 1 s prior to each stimulus is elevated following exposure to odorant, where error bars are s.e.m.
FIG. 3f is a bar graph illustrating the mean responses of the cpA neuron to 1-s pulses of 0.15% CO2, calculated by subtracting the 1 s of the baseline activity prior to each stimulus, where n=5-6 individuals, analysed by t-test, ***p<0.001, and error bars are s.e.m.
as §1

For assay [4], the system named is CO2 receptor neuron. Briefly: Amines: inhibition of CO2 receptor neuron activity. It is filed as cell-based. Further details: % Inhibition: concentration or dose not given beside the values. To be noted: for Average % Inhibition: dose response.
The subject of the next assay is CO2 receptor. The conditions noted are these: cited from earlier work.
Assay [5] has as its system CO2 receptor neuron. Description: Activity of CO2 receptor neuron during spermidine and spermine stimulus windows. It is filed as cell-based. The conditions noted are these: CO2 receptor neuron activity during stimulus window. As for the experimental part: The polyamines were diluted 0.001 to 10% in paraffin oil (PO). Also shown in Table 7 are the activity values of the CO2 receptor neuron during the spermidine and spermine stimulus windows (error bars=s.e.m.).

Setting [6] is: inhibition of CO2 receptor neuron activity by amines.

Like-named read-outs stand apart in the source and are kept apart here.

What is called % Inhibition is the drop in the measured response relative to a control, in per cent.

In the case of 2-ethyl-5(6)-methylpyrazine, the “Activation (spikes s^−1)” value in the assay on cpA neuron [1] is recorded as 14.0 spikes s^−1. The “% Inhibition” value in the assay on cpA neuron [2] is given as −2.0%.
As for `c1cn[nH]c1` [1H-pyrazole], in the assay on cpA neuron [1], the “Activation (spikes s^−1)” value is on record as 3.5 spikes s^−1. For the same compound, the “% Inhibition” value in the assay on cpA neuron [2] came out at 4.9%.
For `CC(O)C(=O)O` (centres unmarked) [2-hydroxypropanoic acid], the “catch vs control traps” value with C. quinquefasciatus is “did not catch significantly more mosquitoes”. Moreover, the “Activation (spikes s^−1)” value in the assay with cpA neuron [1] is on record as −1.0 spikes s^−1.
As for `CC(C)C=O` [2-methylpropanal], in the assay on cpA neuron [1], the “Activation (spikes s^−1)” value amounted to 29.0 spikes s^−1. For the same compound, the “% Inhibition” value in the assay on cpA neuron [2] is 5.8%.
On to `CC(C)CS` [2-methylpropane-1-thiol], for which, in the assay on cpA neuron [1], the “Activation (spikes s^−1)” value is 37.0 spikes s^−1. Further, in the assay on cpA neuron [2], the “% Inhibition” value is recorded as −2.9%.
In the case of `CC(=O)C=O` [2-oxopropanal], the “Activation (spikes s^−1)” value in the assay with cpA neuron [1] was −2.0 spikes s^−1. The “% Inhibition” value in the assay with cpA neuron [2] was −33.6%.
With `C/C=C(\C)C=O` [(E)-2-methylbut-2-enal], the “Activation (spikes s^−1)” value with cpA neuron [1] is 59.5 spikes s^−1. Besides, the “duration of sustained firing of cpA” value in the assay with cpA neuron [3] (after 3-s exposure) was “at least 5.5 min”. The “sustained firing of cpA” value in the assay with cpA neuron [3] (after 3-s exposure (10^−1)) is roughly 45 spikes s^−1. The “cpA responses to 1-s pulses of 0.15% CO2 relative to controls” value with cpA neuron [3] (during sustained firing period) is recorded as “significantly reduced”.
As to `NCCCCNCCCN` [N-(3-aminopropyl)-1,4-butanediamine], the “% Inhibition” value with CO2 receptor neuron [4] (setting [6]) was determined as 92.25%.
For the compound `CNC` [N-methylmethanamine], the “% Inhibition” value in the assay with CO2 receptor neuron [4] was found to be 100%.
Regarding `CCCC(=O)O` [butanoic acid], the “inhibition of the CO2 receptor” value in the assay with CO2 receptor was “strongest known inhibitors”.
Turning to `CCCC=O` [butyraldehyde], in the assay on CO2 receptor, the “inhibition of the CO2 receptor” value was “strongest known inhibitors”.
Take `CCCCCCN` [hexan-1-amine]: the “% Inhibition” value with CO2 receptor neuron [4] (setting [6]) is 86.61%.
As to `COC(=O)C(C)=O` [methyl 2-oxopropanoate], the “fold lower concentration for comparable inhibition vs previously reported inhibitors such as 1-hexanol” value in the assay on cpA neuron [2] was roughly 10 times. For the same compound, the “inhibition of cpA activity” value in the assay on cpA neuron [2] (overlaid on 0.15% CO2) is reported as “strongly inhibited”.
On to `CCCCCN` [pentan-1-amine], for which, in the assay with CO2 receptor neuron [4] (setting [6]), the “% Inhibition” value came to 100%.
Regarding `NCCCCNCCCN` [spermidine], the “Ave. Activity” value in the assay on CO2 receptor neuron [5] (0.001% in paraffin oil) is given as 62.3; in the assay with CO2 receptor neuron [5] (0.01% in paraffin oil), 55.3; in the assay with CO2 receptor neuron [5] (0.1% in paraffin oil), 10.0; in the assay with CO2 receptor neuron [5] (1% in paraffin oil), 5.3; with CO2 receptor neuron [5] (10% in paraffin oil) it was 6.0. Moreover, the “Average % Inhibition” value is reported as −1.0% in the assay on CO2 receptor neuron [4] (0.001% in paraffin oil); 10.6% with CO2 receptor neuron [4] (0.01% in paraffin oil); 85.1% in the assay with CO2 receptor neuron [4] (0.1% in paraffin oil); 92.2% in the assay on CO2 receptor neuron [4] (1% in paraffin oil); 91.3% with CO2 receptor neuron [4] (10% in paraffin oil).
Consider `NCCCNCCCCNCCCN` [spermine], for which the “Ave. Activity” value in the assay on CO2 receptor neuron [5] (0.001% in paraffin oil) turned out to be 52.0; in the assay with CO2 receptor neuron [5] (0.01% in paraffin oil), 52.3; with CO2 receptor neuron [5] (0.1% in paraffin oil) it was 14.0; in the assay with CO2 receptor neuron [5] (1% in paraffin oil), 2.7; in the assay with CO2 receptor neuron [5] (10% in paraffin oil), 2.3. Besides, the “Average % Inhibition” value with CO2 receptor neuron [4] (0.001% in paraffin oil) was −5.6%; in the assay on CO2 receptor neuron [4] (0.01% in paraffin oil), −3.2%; in the assay with CO2 receptor neuron [4] (0.1% in paraffin oil), 76.5%; in the assay with CO2 receptor neuron [4] (1% in paraffin oil), 94.8%; in the assay with CO2 receptor neuron [4] (10% in paraffin oil), 95.1%.

These data come from US9897592B2, “Methods for identifying arthropod repellents and attractants, and compounds and compositions identified by such methods” (The Regents of the University of California, priority 2013, dated 2018).
